Like-named read-outs stand apart in the source and are kept apart here.
Experiments:
[1] = target: T1, rat prostate spermidine synthase (Rattus norvegicus, UniProt Q99MI5); experiment: Inhibition of purified spermidine synthase from rat ventral prostate; assay type: biochemical
T1 construct: purified spermidine synthase obtained from the rat ventral prostate; from tissue; host or cells: rat ventral prostate
T1 sequence (Q99MI5 1-302): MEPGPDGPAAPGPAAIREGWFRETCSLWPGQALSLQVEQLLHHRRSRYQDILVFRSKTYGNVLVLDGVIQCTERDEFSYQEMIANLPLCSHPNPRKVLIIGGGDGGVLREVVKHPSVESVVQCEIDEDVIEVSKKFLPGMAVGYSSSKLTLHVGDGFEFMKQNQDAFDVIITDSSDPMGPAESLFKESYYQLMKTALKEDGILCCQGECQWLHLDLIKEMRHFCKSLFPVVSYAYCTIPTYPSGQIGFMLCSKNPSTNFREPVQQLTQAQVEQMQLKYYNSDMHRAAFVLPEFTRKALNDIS

[2] = target: T2, methylthioadenosine phosphorylase (Rattus norvegicus, UniProt A0A0G2K583); experiment: Inhibition of methylthioadenosine (MTA) phosphorylase; assay type: biochemical; conditions: for % Inhibition MTA Phosphorylase: methyl thioadenosine 100 μm
T2 construct: In the tests involving MTA phosphorylase, the procedure described by H. Hibasami was employed; from tissue
T2 sequence (A0A0G2K583 1-283): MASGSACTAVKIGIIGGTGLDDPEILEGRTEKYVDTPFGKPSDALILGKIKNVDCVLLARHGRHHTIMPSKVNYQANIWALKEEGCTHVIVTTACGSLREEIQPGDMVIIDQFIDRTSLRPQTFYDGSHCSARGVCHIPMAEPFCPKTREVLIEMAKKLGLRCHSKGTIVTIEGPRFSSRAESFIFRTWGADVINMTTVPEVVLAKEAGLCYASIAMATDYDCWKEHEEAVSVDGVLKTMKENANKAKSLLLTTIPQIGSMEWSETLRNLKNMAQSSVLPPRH
Text: However, they can be readily prepared by coupling 5'-deoxy-5'-chloroadenosine with an appropriate thiol compound. […] (In the tests involving MTA phosphorylase, the procedure described by H. Hibasami was employed at a methyl thioadenosine concentration of 100 μm.)

[3] = target: T3, rat prostate spermine synthase (Rattus norvegicus, UniProt Q3MIE9); experiment: Inhibition of rat prostate spermine synthase; assay type: biochemical; conditions: for inhibition at 100 µM: second preparation of spermine synthase
T3 construct: with respect to rat prostate spermine synthase; from tissue; host or cells: rat prostate
T3 sequence (Q3MIE9 1-366): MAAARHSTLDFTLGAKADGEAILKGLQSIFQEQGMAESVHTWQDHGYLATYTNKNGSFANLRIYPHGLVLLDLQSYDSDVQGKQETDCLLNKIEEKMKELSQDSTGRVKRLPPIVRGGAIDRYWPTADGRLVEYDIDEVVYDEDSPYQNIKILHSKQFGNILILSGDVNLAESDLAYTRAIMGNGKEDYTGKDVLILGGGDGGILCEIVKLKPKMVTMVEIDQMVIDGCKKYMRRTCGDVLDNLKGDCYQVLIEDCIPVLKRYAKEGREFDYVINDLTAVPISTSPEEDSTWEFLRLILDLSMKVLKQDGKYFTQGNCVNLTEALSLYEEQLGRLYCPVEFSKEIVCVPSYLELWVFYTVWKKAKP
Text: This enzyme catalyzes the synthesis of spermine in the reaction of spermidine with decarboxylated S-adenosylmethionine, presumably by direct nucleophilic attack as shown by the above transition state wherein R is aminopropyl.

aminopropyl transferases = conditions: another study; cited from earlier work
SAM-dependent methylases = conditions: cited from earlier work
[4] = Solubility limiting the concentration range; assay type: physicochemical; conditions: concentration range limited
[5] = at concentrations as high as 250 μM

% Inhibition Spermidine Synthase ([1]; Concentration 50, dcSAM 21 μm) [%]	% Inhibition Spermidine Synthase ([1]; Concentration 100, dcSAM 21 μm) [%]	% Inhibition Spermidine Synthase ([1]; Concentration 250, dcSAM 21 μm) [%]	% Inhibition MTA Phosphorylase ([2]; Concentration 250) [%]	inhibition of spermine synthase (in words) [3]	% Inhibition Spermine Synthase ([3]; Concentration 50) [%]	% Inhibition Spermine Synthase ([3]; Concentration 100) [%]	% Inhibition Spermine Synthase ([3]; Concentration 250) [%]	SMILES	inhibition of spermidine synthase (in words) [1]	other results
7	14	44	21	only modest inhibition	35	56	75	CCCCCC(CC)[S+](C)C[C@H]1O[C@@H](n2cnc3c(N)ncnc32)[C@H](O)[C@@H]1O (stereo partly drawn) [Compound IIb, S-Adenosyl-3-methylthiooctane]	do not at all inhibit	inhibition at 100 µM [3]: 19%
84	92	96	25	only modest inhibition	40	59	86	C[S+](C[C@H]1O[C@@H](n2cnc3c(N)ncnc32)[C@H](O)[C@@H]1O)C(CCN)CCCCCN (stereo partly drawn) [IIc, S-Adenosyl-1,8-diamino-3-(methylthio)octane]		% Inhibition Spermidine Synthase ([1]; Concentration 10, dcSAM 21 μm): 32%; effect on methylthioadenosine phosphorylase (in words) [2]: neither compound Ic nor IIc has any significant effect; % Inhibition Spermine Synthase ([3]; Concentration 10): 7%; inhibition at 100 µM [3]: 28%
								Nc1ncnc2c1ncn2[C@@H]1O[C@H](CSCC[C@H](N)C(=O)O)[C@@H](O)[C@H]1O [S-adenosyl-L-homocysteine]		inhibition of SAM-dependent methylases (in words) (SAM-dependent methylases; another study): non-specific inhibition; Ki versus Km of S-adenosyl-L-methionine (in words) (SAM-dependent methylases; many methylases, Cantoni et al): considerably less than the Km value for the corresponding sulfonium substrate
								NCCCCCC(O)CCN (stereo not drawn) [1,8-diamine-3-octanol, reference compound]		inhibition of spermidine synthase (in words) [1, 5]: completely inactive; inhibition of spermine synthase (in words) [3, 5]: completely inactive
	0			almost no inhibitory activity		22		CCCCCC(CC)SC[C@H]1O[C@@H](n2cnc3c(N)ncnc32)[C@H](O)[C@@H]1O (stereo partly drawn) [Compound Ib, S-adenosyl-3-thiooctane]	do not at all inhibit	% Inhibition Spermidine Synthase ([1]; Concentration 25, dcSAM 21 μm): 0%; solubility (in words) [4]: poor solubility; % Inhibition MTA Phosphorylase ([2]; Concentration 100): 25%; % Inhibition Spermine Synthase ([3]; Concentration 25): 11%
99	99			almost no inhibitory activity				NCCCCCC(CCN)SC[C@H]1O[C@@H](n2cnc3c(N)ncnc32)[C@H](O)[C@@H]1O (stereo partly drawn) [Compound Ic, S-Adenosyl-1,8-diamino-3-thiooctane]	more potent inhibitor of spermidine synthase than the fully charged methyl sulfonium salt IIc	% Inhibition Spermidine Synthase ([1]; Concentration 10, dcSAM 21 μm): 97%; % Inhibition Spermidine Synthase ([1]; Concentration 25, dcSAM 21 μm): 97%; inhibitory specificity against spermidine synthase (in words) ([1]; versus spermine synthase): unusual inhibitory specificity; effect on methylthioadenosine phosphorylase (in words) [2]: neither compound Ic nor IIc has any significant effect; % Inhibition MTA Phosphorylase ([2]; Concentration 10): 3%; % Inhibition MTA Phosphorylase ([2]; Concentration 25): 8%; % Inhibition MTA Phosphorylase ([2]; Concentration 100): 10%; % Inhibition Spermine Synthase ([3]; Concentration 25): 10%

SMILES	% Inhibition Spermidine Synthase ([1]; Concentration 50, dcSAM 21 μm) [%]	% Inhibition Spermidine Synthase ([1]; Concentration 100, dcSAM 21 μm) [%]	% Inhibition Spermidine Synthase ([1]; Concentration 250, dcSAM 21 μm) [%]	% Inhibition MTA Phosphorylase ([2]; Concentration 250) [%]	inhibition of spermine synthase (in words) [3]	% Inhibition Spermine Synthase ([3]; Concentration 50) [%]	% Inhibition Spermine Synthase ([3]; Concentration 100) [%]	% Inhibition Spermine Synthase ([3]; Concentration 250) [%]	inhibition of spermidine synthase (in words) [1]	other results
CSC[C@H]1O[C@@H](n2cnc3c(N)ncnc32)[C@H](O)[C@@H]1O [Ia, 5'-methylthioadenosine]					inhibitor of both spermidine synthase and spermine synthase				inhibitor of both spermidine synthase and spermine synthase	% Inhibition Spermidine Synthase ([1]; Concentration 50, dcSAM 42 μM): 61%; % Inhibition Spermidine Synthase ([1]; Concentration 100, dcSAM 42 μM): 82%; MTA Phosphorylase (substrate, in words) [2]: Substrate; % Inhibition Spermine Synthase ([3]; Concentration 50, dcSAM 42 μM): 80%; % Inhibition Spermine Synthase ([3]; Concentration 100, dcSAM 42 μM): 98%; inhibition of aminopropyl transferases (in words) (aminopropyl transferases): non-specific inhibition
C[S+](C)C[C@H]1O[C@@H](n2cnc3c(N)ncnc32)[C@H](O)[C@@H]1O.[O-][Cl+3]([O-])([O-])[O-] [IIa, Dimethyl-(5'-adenosyl)sulfonium perchlorate]	0		6	30	shows inhibition of spermine synthase	68		82		
